Test results from patent publication US20230339886A1 (University of Florida Research Foundation, Incorporated, priority 2020, published 2023).

target: T1, REV-ERBα LBD (human; residues 281-614 Δ324-422) (Homo sapiens, UniProt P20393, DEL324-422); experiment: TR-FRET corepressor interaction assay (REV-ERBα LBD, FITC-SMRT peptide); format: biochemical; conditions: Table 2, read-out: REVERBα agonism (EC50 class, FRET assay)
T1 construct: 6×Histag-REV-ERBα LBD (human; residues 281-614 Δ324-422); made in house; host or cells: Escherichia coli
T1 sequence (P20393 with tags, fused parts or gaps DEL324-422): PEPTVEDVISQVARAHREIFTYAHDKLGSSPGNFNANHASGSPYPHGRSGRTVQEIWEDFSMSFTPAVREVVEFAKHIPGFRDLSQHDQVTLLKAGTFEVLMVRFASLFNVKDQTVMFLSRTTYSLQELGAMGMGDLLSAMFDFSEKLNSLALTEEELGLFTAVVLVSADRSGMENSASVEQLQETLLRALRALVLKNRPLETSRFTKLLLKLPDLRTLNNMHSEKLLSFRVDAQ
T1 sequence (Q9Y618 2335-2356 partner limits assumed): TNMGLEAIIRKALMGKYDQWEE
Outline: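 Compound serial dilutions (in DMSO, triplicate) incubated 2 h at 4 °C; Tb donor excited at 340 nm, emission read at 495 nm and FITC acceptor at 520 nm. TR-FRET ratio (520/495 nm) plotted against ligand concentration and fitted to a sigmoidal dose-response curve.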

EC50	SMILES
500 to 3000 nM	CC(C)S(=O)(=O)N[C@@H](c1cn(CC(C)(C)C)c2cc(-c3ccccc3C(F)(F)F)c(F)cc12)C(F)(F)F [Example 348, (S)—N-(2,2,2-trifluoro-1-(5-fluoro-1-neopentyl-6-(2-(trifluoromethyl)phenyl)-1H-indol-3-yl)ethyl)propane-2-sulfonamide]
< 500 nM	O=S(=O)(N[C@@H](c1cn(CC2CC2)c2cc(-c3ccccc3C(F)(F)F)c(F)cc12)C(F)(F)F)C1CC1 [Example 349, (S)—N-(1-(1-(cyclopropylmethyl)-5-fluoro-6-(2-(trifluoromethyl)phenyl)-1H-indol-3-yl)-2,2,2-trifluoroethyl)cyclopropanesulfonamide]
500 to 3000 nM	CC(C)(C)Cn1cc([C@H](NS(=O)(=O)C2CC2)C(F)(F)F)c2cc(F)c(-c3ccccc3)cc21 [Example 350, (S)—N-(2,2,2-trifluoro-1-(5-fluoro-1-neopentyl-6-phenyl-1H-indol-3-yl)ethyl)cyclopropanesulfonamide]
< 500 nM	CC(C)(C)Cn1cc([C@H](NS(=O)(=O)C2CC2)C(F)(F)F)c2cc(F)c(-c3c(F)cccc3C(F)(F)F)cc21 [Example 351, N-((1S)-2,2,2-trifluoro-1-(5-fluoro-6-(2-fluoro-6-(trifluoromethyl)phenyl)-1-neopentyl-1H-indol-3-yl)ethyl)cyclopropanesulfonamide]
< 500 nM	Cc1c(-c2ccccc2C(F)(F)F)ccc2c([C@H](NS(=O)(=O)C3CC3)C(F)(F)F)cn(CC(C)(C)C)c12 [Example 353, (S)—N-(2,2,2-trifluoro-1-(7-methyl-1-neopentyl-6-(2-(trifluoromethyl)phenyl)-1H-indol-3-yl)ethyl)cyclopropanesulfonamide]
< 500 nM	CC(C)(C)Cn1cc([C@H](NS(=O)(=O)C2CC2)C(F)(F)F)c2cc(F)c(-c3ccc(F)cc3C(F)(F)F)cc21 [Example 355, (S)—N-(2,2,2-trifluoro-1-(5-fluoro-6-(4-fluoro-2-(trifluoromethyl)phenyl)-1-neopentyl-1H-indol-3-yl)ethyl)cyclopropanesulfonamide]
500 to 3000 nM	CC(C)(C)Cn1cc([C@H](NS(=O)(=O)C2CC2)C(F)(F)F)c2cc(C(F)(F)F)c(-c3ccccc3C(F)(F)F)cc21 [Example 357, (S)—N-(2,2,2-trifluoro-1-(1-neopentyl-5-(trifluoromethyl)-6-(2-(trifluoromethyl)phenyl)-1H-indol-3-yl)ethyl)cyclopropanesulfonamide]
< 500 nM	CC(C)(C)Cn1cc([C@H](NS(=O)(=O)C2CC2)C(F)(F)F)c2cc(F)c(-c3cccc(F)c3C(F)(F)F)cc21 [Example 360, (S)—N-(2,2,2-trifluoro-1-(5-fluoro-6-(3-fluoro-2-(trifluoromethyl)phenyl)-1-neopentyl-1H-indol-3-yl)ethyl)cyclopropanesulfonamide]
< 500 nM	CC(C)(C)Cn1cc([C@H](NS(=O)(=O)C2CC2)C(F)(F)F)c2cc(F)c(-c3ccncc3Cl)cc21 [Example 361, (S)—N-(1-(6-(3-chloropyridin-4-yl)-5-fluoro-1-neopentyl-1H-indol-3-yl)-2,2,2-trifluoroethyl)cyclopropanesulfonamide]
500 to 3000 nM	CC(C)(C)Cn1cc([C@H](NS(=O)(=O)C(C)(C)C)C(F)(F)F)c2cc(F)c(-c3ccccc3C(F)(F)F)cc21 [Example 366, (S)-2-methyl-N-(2,2,2-trifluoro-1-(5-fluoro-1-neopentyl-6-(2-(trifluoromethyl)phenyl)-1H-indol-3-yl)ethyl)propane-2-sulfonamide]
< 500 nM	CC(C)(C)Cn1cc([C@H](NS(=O)(=O)C2CC2)C(F)(F)F)c2ccc(-c3ccc(F)cc3C(F)(F)F)cc21 [Example 367, (S)—N-(2,2,2-trifluoro-1-(6-(4-fluoro-2-(trifluoromethyl)phenyl)-1-neopentyl-1H-indol-3-yl)ethyl)cyclopropanesulfonamide]
500 to 3000 nM	Cc1c(Br)ccc2c([C@H](NS(=O)(=O)C3CC3)C(F)(F)F)cn(CC(C)(C)C)c12 [Example 368, (S)—N-(1-(6-bromo-7-methyl-1-neopentyl-1H-indol-3-yl)-2,2,2-trifluoroethyl)cyclopropanesulfonamide]
500 to 3000 nM	CC(C)(C)Cn1cc([C@H](NS(=O)(=O)C2CC2)C(F)(F)F)c2ccc(Br)c(F)c21 [Example 369, (S)—N-(1-(6-bromo-7-fluoro-1-neopentyl-1H-indol-3-yl)-2,2,2-trifluoroethyl)cyclopropanesulfonamide]
< 500 nM	CC(C)Cn1cc([C@H](NS(=O)(=O)C2CC2)C(F)(F)F)c2ccc(-c3ccnn3C)cc21 [Example 370, (S)—N-(2,2,2-trifluoro-1-(1-isobutyl-6-(1-methyl-1H-pyrazol-5-yl)-1H-indol-3-yl)ethyl)cyclopropanesulfonamide]
500 to 3000 nM	CNS(=O)(=O)N[C@@H](c1cn(CC(C)(C)C)c2cc(-c3ccccc3C(F)(F)F)c(F)cc12)C(F)(F)F [Example 371]
500 to 3000 nM	CC(C)(C)Cn1cc([C@H](NS(=O)(=O)C2CCCC2)C(F)(F)F)c2cc(F)c(-c3ccccc3C(F)(F)F)cc21 [Example 372, (S)—N-(2,2,2-trifluoro-1-(5-fluoro-1-neopentyl-6-(2-(trifluoromethyl)phenyl)-1H-indol-3-yl)ethyl)cyclopentanesulfonamide]
< 500 nM	CC(C)(C)Cn1cc([C@H](NS(=O)(=O)C2CC2)C(F)(F)F)c2ccc(-c3c(F)cccc3C(F)(F)F)cc21 [Example 373, (S)—N-(2,2,2-trifluoro-1-(6-(2-fluoro-6-(trifluoromethyl)phenyl)-1-neopentyl-1H-indol-3-yl)ethyl)cyclopropanesulfonamide]
< 500 nM	CC(C)(C)Cn1cc([C@H](NS(=O)(=O)C2CCC2)C(F)(F)F)c2cc(F)c(-c3ccccc3C(F)(F)F)cc21 [Example 374, (S)—N-(2,2,2-trifluoro-1-(5-fluoro-1-neopentyl-6-(2-(trifluoromethyl)phenyl)-1H-indol-3-yl)ethyl)cyclobutanesulfonamide]
< 500 nM	CC(C)(C)Cn1cc([C@H](NS(=O)(=O)C2(C)CC2)C(F)(F)F)c2cc(F)c(-c3ccccc3C(F)(F)F)cc21 [Example 375, (S)-1-methyl-N-(2,2,2-trifluoro-1-(5-fluoro-1-neopentyl-6-(2-(trifluoromethyl)phenyl)-1H-indol-3-yl)ethyl)cyclopropane-1-sulfonamide]
> 3000 nM	CC(C)(C)Cn1cc([C@H](NS(=O)(=O)C2CC2)C(F)(F)F)c2cc(C(F)(F)F)c(Br)cc21 [Example 376, (S)—N-(1-(6-bromo-1-neopentyl-5-(trifluoromethyl)-1H-indol-3-yl)-2,2,2-trifluoroethyl)cyclopropanesulfonamide]
500 to 3000 nM	CC(C)Cn1cc([C@H](NS(=O)(=O)C2CC2)C(F)(F)F)c2cc(F)c(-c3ccn[nH]3)cc21 [Example 377, (S)—N-(2,2,2-trifluoro-1-(5-fluoro-1-isobutyl-6-(1H-pyrazol-5-yl)-1H-indol-3-yl)ethyl)cyclopropanesulfonamide]
< 500 nM	CC(C)(C)Cn1cc([C@H](NS(=O)(=O)C2CC2)C(F)(F)F)c2cc(F)c(-c3ccn[nH]3)cc21 [Example 380, N-[(1S)-1-[1-(2,2-dimethylpropyl)-5-fluoro-6-(1H-pyrazol-5-yl)indol-3-yl]-2,2,2-trifluoro-ethyl]cyclopropanesulfonamide]
500 to 3000 nM	Cc1cn[nH]c1-c1cc2c(cc1F)c([C@H](NS(=O)(=O)C1CC1)C(F)(F)F)cn2CC(C)(C)C [Example 381, N-[(1S)-1-[1-(2,2-dimethylpropyl)-5-fluoro-6-(4-methyl-1H-pyrazol-5-yl)indol-3-yl]-2,2,2-trifluoro-ethyl]cyclopropanesulfonamide]
500 to 3000 nM	CC(C)(C)Cn1cc([C@H](NS(=O)(=O)C2CC2)C(F)(F)F)c2ccc(-c3ncccn3)cc21 [Example 382, (S)—N-(2,2,2-trifluoro-1-(1-neopentyl-6-(pyrimidin-2-yl)-1H-indol-3-yl)ethyl)cyclopropanesulfonamide]
500 to 3000 nM	CC(C)(C)Cn1cc([C@H](NS(=O)(=O)C2CC2)C(F)(F)F)c2ccc(-c3cccnc3)cc21 [Example 383, (S)—N-(2,2,2-trifluoro-1-(1-neopentyl-6-(pyridin-3-yl)-1H-indol-3-yl)ethyl)cyclopropanesulfonamide]
< 500 nM	CC(C)(C)Cn1cc([C@H](NS(=O)(=O)C2CC2)C(F)(F)F)c2ccc(-c3ccncc3C#N)cc21 [Example 384, (S)—N-(1-(6-(3-cyanopyridin-4-yl)-1-neopentyl-1H-indol-3-yl)-2,2,2-trifluoroethyl)cyclopropanesulfonamide]
500 to 3000 nM	Cc1nc2ccccn2c1-c1ccc2c([C@H](NS(=O)(=O)C3CC3)C(F)(F)F)cn(CC(C)(C)C)c2c1 [Example 385, (S)—N-(2,2,2-trifluoro-1-(6-(2-methylimidazo[1,2-a]pyridin-3-yl)-1-neopentyl-1H-indol-3-yl)ethyl)cyclopropanesulfonamide]
500 to 3000 nM	CC(C)(C)Cn1cc([C@H](NS(=O)(=O)C2CC2)C(F)(F)F)c2ccc(-c3cccc(F)c3C#N)cc21 [Example 386, (S)—N-(1-(6-(2-cyano-3-fluorophenyl)-1-neopentyl-1H-indol-3-yl)-2,2,2-trifluoroethyl)cyclopropanesulfonamide]
500 to 3000 nM	CC(C)(C)Cn1cc([C@H](NS(=O)(=O)C2CC2)C(F)(F)F)c2ccc(-c3ccc(F)c(C#N)c3)cc21 [Example 387, (S)—N-(1-(6-(3-cyano-4-fluorophenyl)-1-neopentyl-1H-indol-3-yl)-2,2,2-trifluoroethyl)cyclopropanesulfonamide]
< 500 nM	Cc1cccc(Cl)c1-c1ccc2c([C@H](NS(=O)(=O)C3CC3)C(F)(F)F)cn(CC(C)(C)C)c2c1 [Example 388, (S)—N-(1-(6-(2-chloro-6-methylphenyl)-1-neopentyl-1H-indol-3-yl)-2,2,2-trifluoroethyl)cyclopropanesulfonamide]
